Measurements taken from patent US20080161288A1, “COMPOUNDS” (Pfizer Inc., priority 2006, published 2008).
Structures can show the parent of a compound that is named as a salt.

What was measured:
[1] = target: T1, bovine beta-2 adrenoceptor (Bos taurus, UniProt Q28044); assay: cAMP assay in CHO cells transfected with the bovine beta-2 adrenoceptor; format: cell-based; conditions: cAMP (DiscoveRx Hit Hunter cAMP II) in CHO cells transfected with bovine beta-2 adrenoceptor, 30 minutes with compound, 0.5 mM IBMX
T1 construct: expressed in transfected cells; host or cells: CHO cells
T1 sequence (Q28044 whole entry): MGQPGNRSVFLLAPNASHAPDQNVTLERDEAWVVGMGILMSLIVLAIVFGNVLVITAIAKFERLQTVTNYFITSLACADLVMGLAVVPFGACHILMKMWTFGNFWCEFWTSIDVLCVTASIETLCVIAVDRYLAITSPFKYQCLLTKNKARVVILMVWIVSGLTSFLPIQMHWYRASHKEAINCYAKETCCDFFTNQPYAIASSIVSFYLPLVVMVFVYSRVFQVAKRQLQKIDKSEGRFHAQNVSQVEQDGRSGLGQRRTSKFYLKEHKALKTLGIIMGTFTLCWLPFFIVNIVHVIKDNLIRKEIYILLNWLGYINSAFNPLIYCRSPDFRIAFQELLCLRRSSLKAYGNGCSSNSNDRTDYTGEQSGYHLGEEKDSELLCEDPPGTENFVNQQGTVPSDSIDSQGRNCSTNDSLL
Description: (§1) CHO cells transfected with the bovine or porcine beta-2 adrenceptors were maintained in culture in DMEM/HAMS F12+10% FBS+2 mM glutamine+500 μg/ml geneticin (for the porcine receptor the medium was supplement with 1.5 mM HEPES) at 37° C. with a 5% CO2 atmosphere.
(§2) Cells were plated into 96 well viewplates in medium and incubated overnight at 37° C. with a 5% CO2 atmosphere. The cells were pre-incubated with 0.5 mM IBMX in PBS for 30 minutes prior to incubation with increasing concentrations of experimental compound (5×10^−12 to 10^−5 M) for 30 minutes at 37° C. with a 5% CO2 atmosphere. At the end of the incubation time the compound was removed and the cells assayed for cAMP using the DiscoveRx Hit Hunter cAMP II™ assay kit.
(§3) Duplicate samples were run for each experimental compound and the data generated was analysed using EC50 analysis software in Graphpad Prism.

[2] = target: T2, porcine beta-2 adrenoceptor (Sus scrofa, UniProt Q28997); assay: cAMP assay in CHO cells transfected with the porcine beta-2 adrenoceptor; format: cell-based; conditions: cAMP (DiscoveRx Hit Hunter cAMP II) in CHO cells transfected with porcine beta-2 adrenoceptor, 30 minutes with compound, 0.5 mM IBMX
T2 construct: expressed in transfected cells; host or cells: CHO cells
T2 sequence (Q28997 whole entry): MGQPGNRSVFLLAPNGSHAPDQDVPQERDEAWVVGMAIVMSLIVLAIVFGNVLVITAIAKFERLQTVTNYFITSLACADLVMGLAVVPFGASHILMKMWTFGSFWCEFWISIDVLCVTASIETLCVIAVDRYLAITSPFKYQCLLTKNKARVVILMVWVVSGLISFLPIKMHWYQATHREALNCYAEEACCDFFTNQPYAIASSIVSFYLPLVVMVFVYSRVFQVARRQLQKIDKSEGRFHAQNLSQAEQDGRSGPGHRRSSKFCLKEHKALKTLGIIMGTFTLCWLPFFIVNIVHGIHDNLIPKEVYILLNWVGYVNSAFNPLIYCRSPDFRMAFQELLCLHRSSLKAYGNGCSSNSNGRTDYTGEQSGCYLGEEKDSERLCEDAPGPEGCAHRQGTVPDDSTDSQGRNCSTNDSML
Description: as §1, §2, §3

Question: How did the EC50 [1] turn out when `CC(CCc1ccc(O)c(F)c1)NC1CCn2c(=O)[nH]c3cccc(c32)C1O` (single isomer, unassigned) [Example 36, 6-{[3-(3-Fluoro-4-hydroxyphenyl)-1-methylpropyl]amino}-7-hydroxy-4,5,6,7-tetrahydroimidazo[4,5,1-jk][1]benzazepin-2(1H)-one] was run?
Answer: Its EC50 is 1.4 nM.

Question: What about the EC50 [2] of the same molecule?
Answer: Its EC50 is 2.2 nM.

Question: For `CC(CCc1ccc(O)c(F)c1F)NC1CCn2c(=O)[nH]c3cccc(c32)C1O` (single isomer, unassigned) [Example 37, 6-{[3-(2,3-Difluoro-4-hydroxyphenyl)-1-methylpropyl]amino}-7-hydroxy-4,5,6,7-tetrahydroimidazo[4,5,1-jk][1]benzazepin-2(1H)-one], which EC50 [1] is on record?
Answer: Its EC50 is 2.8 nM.

Question: What about the EC50 [2] of the same molecule?
Answer: The EC50 was 1.9 nM.

Question: With `CC(CCc1cccc(O)c1)NC1CCn2c(=O)[nH]c3cccc(c32)C1O` (single isomer, unassigned) [Example 39, 7-Hydroxy-6-{[3-(3-hydroxyphenyl)-1-methylpropyl]amino}-4,5,6,7-tetrahydroimidazo[4,5,1-jk][1]benzazepin-2(1H)-one] as the molecule, how does the EC50 [1] read?
Answer: The EC50 was 7.5 nM.

Question: And the EC50 [2]?
Answer: Its EC50 is 5.6 nM.

Question: Which EC50 [1] does the source give for `CC(/C=C/c1ccccc1F)N[C@@H]1CCn2c(=O)[nH]c3cccc(c32)[C@H]1O` (single isomer, unassigned) [Example 40a, 6-{[3-(2-Fluorophenyl)-1-methylprop-2-en-1-yl]amino}-7-hydroxy-4,5,6,7-tetrahydroimidazo[4,5,1-jk][1]benzazepin-2(1H)-one] here?
Answer: Its EC50 is 242 nM.

Question: What about the EC50 [2] of the same molecule?
Answer: The EC50 was 65.1 nM.

Question: `CC(/C=C/c1ccccc1F)N[C@@H]1CCn2c(=O)[nH]c3cccc(c32)[C@H]1O` (single isomer, unassigned) [Example 40b, 6-{[3-(2-Fluorophenyl)-1-methylprop-2-en-1-yl]amino}-7-hydroxy-4,5,6,7-tetrahydroimidazo[4,5,1-jk][1]benzazepin-2(1H)-one] was tested. Which EC50 [1] did it give?
Answer: The EC50 was 33.2 nM.

Question: What about the EC50 [2] of the same molecule?
Answer: The EC50 was 18 nM.

Question: Which EC50 [1] does the source give for `C[C@H](CCc1ccc(N)cc1)N[C@@H]1CCn2c(=O)[nH]c3cccc(c32)[C@H]1O` (single isomer, unassigned) [Example 45, 6-{[3-(4-Aminophenyl)-1-methylpropyl]amino}-7-hydroxy-4,5,6,7-tetrahydroimidazo[4,5,1-jk][1]benzazepin-2(1H)-one] here?
Answer: The EC50 was 30.3 nM.

Question: And the EC50 [2]?
Answer: Its EC50 is 21 nM.

Question: What does the source list for `C[C@H](CCc1cccc(N)c1)N[C@@H]1CCn2c(=O)[nH]c3cccc(c32)[C@H]1O` (single isomer, unassigned) [Example 46, 6-{[3-(3-Aminophenyl)-1-methylpropyl]amino}-7-hydroxy-4,5,6,7-tetrahydroimidazo[4,5,1-jk][1]benzazepin-2(1H)-one]?
Answer: EC50 [1]: 33.8 nM; EC50 [2]: 28.9 nM

Question: Which EC50 [1] does the source give for `CC(CCc1ccccc1O)N[C@@H]1CCn2c(=O)[nH]c3cccc(c32)[C@H]1O` (single isomer, unassigned) [Example 48, Hydrochloride salt of 7-hydroxy-6-{[3-(2-hydroxyphenyl)-1-methylpropyl]amino}-4,5,6,7-tetrahydroimidazo[4,5,1-jk][1]benzazepin-2(1H)-one] here?
Answer: Its EC50 is 1 nM.

Question: And the EC50 [2]?
Answer: Its EC50 is 1.9 nM.

Question: What does the source list for `CC(CCc1cccc(O)c1Cl)N[C@@H]1CCn2c(=O)[nH]c3cccc(c32)[C@H]1O` (single isomer, unassigned) [Example 50, 6-{[3-(2-Chloro-3-hydroxyphenyl)-1-methylpropyl]amino}-7-hydroxy-4,5,6,7-tetrahydroimidazo[4,5,1-jk][1]benzazepin-2(1H)-one]?
Answer: EC50 [1]: 1.7 nM; EC50 [2]: 1.3 nM

Question: Which EC50 [1] does the source give for `CC(CCc1ccccc1NC(=O)C(F)(F)F)N[C@@H]1CCn2c(=O)[nH]c3cccc(c32)[C@H]1O` (single isomer, unassigned) [Example 51, 2,2,2-Trifluoro-N-{2-[3-{[7-hydroxy-2-oxo-1,2,4,5,6,7-hexahydroimidazo[4,5,1-jk][1]benzazepin-6-yl]amino}butyl]phenyl}acetamide] here?
Answer: Its EC50 is 3.6 nM.

Question: What about the EC50 [2] of the same molecule?
Answer: Its EC50 is 11 nM.

Question: `CC(CCc1ccc(C(=O)NCC(F)(F)F)cc1)N[C@@H]1CCn2c(=O)[nH]c3cccc(c32)[C@H]1O` (single isomer, unassigned) [Example 52, 4-[-3-{[7-Hydroxy-2-oxo-1,2,4,5,6,7-hexahydroimidazo[4,5,1-jk][1]benzazepin-6-yl]amino}butyl]-N-(2,2,2-trifluoroethyl)benzamide] was tested. Which EC50 [1] did it give?
Answer: Its EC50 is 7.7 nM.

Question: What about the EC50 [2] of the same molecule?
Answer: Its EC50 is 38.4 nM.

Question: Which results are given for `CC(CCc1cccc(C(=O)O)c1)N[C@@H]1CCn2c(=O)[nH]c3cccc(c32)[C@H]1O` (single isomer, unassigned) [Example 53]?
Answer: EC50 [1]: 167 nM; EC50 [2]: 78.8 nM

Question: `CC(CCc1c(Cl)ccc(O)c1Cl)NC1CCn2c(=O)[nH]c3cccc(c32)C1O` (single isomer, unassigned) [Example 55] was tested. Which EC50 [1] did it give?
Answer: Its EC50 is 4.3 nM.

Question: And the EC50 [2]?
Answer: The EC50 was 2.7 nM.

Question: What does the source list for `CCS(=O)(=O)Nc1ccccc1CCC(C)NC1CCn2c(=O)[nH]c3cccc(c32)C1O` (single isomer, unassigned) [Example 56, N-{2-[3-{[7-Hydroxy-2-oxo-1,2,4,5,6,7-hexahydroimidazo[4,5,1-jk][1]benzazepin-6-yl]amino}butyl]phenyl}ethanesulfonamide]?
Answer: EC50 [1]: 5.2 nM; EC50 [2]: 2.8 nM

Question: How did the EC50 [1] turn out when `C[C@@H](CCc1cccc(NC(=O)C(F)(F)F)c1)N[C@@H]1CCn2c(=O)[nH]c3cccc(c32)[C@H]1O` (single isomer, unassigned) [Example 57, 2,2,2-Trifluoro-N-{3-[3-{[7-hydroxy-2-oxo-1,2,4,5,6,7-hexahydroimidazo[4,5,1-jk][1]benzazepin-6-yl]amino}butyl]phenyl}acetamide] was run?
Answer: Its EC50 is 6.1 nM.

Question: What about the EC50 [2] of the same molecule?
Answer: The EC50 was 7.1 nM.

Question: How did the EC50 [1] turn out when `CC(CCc1ccc(O)c(F)c1)NC1CCn2c(=O)[nH]c3cccc(c32)C1O` (single isomer, unassigned) [Example 58, 6-{[3-(3-Fluoro-4-hydroxyphenyl)-1-methylpropyl]amino}-7-hydroxy-4,5,6,7-tetrahydroimidazo[4,5,1-jk][1]benzazepin-2(1H)-one] was run?
Answer: The EC50 was 1.1 nM.

Question: What about the EC50 [2] of the same molecule?
Answer: Its EC50 is 2.4 nM.

Question: How did the EC50 [1] turn out when `CC(CCc1ccc(NC(=O)C(F)(F)F)cc1)NC1CCn2c(=O)[nH]c3cccc(c32)C1O` (single isomer, unassigned) [Example 59] was run?
Answer: The EC50 was 10.4 nM.

Question: What about the EC50 [2] of the same molecule?
Answer: Its EC50 is 12.1 nM.

Question: `CC(CCc1ccc(O)c(C(F)(F)F)c1)NC1CCn2c(=O)[nH]c3cccc(c32)C1O` (single isomer, unassigned) [Example 60, 7-Hydroxy-6-({3-[4-hydroxy-3-(trifluoromethyl)phenyl]-1-methylpropyl}amino)-4,5,6,7-tetrahydroimidazo[4,5,1-jk][1]benzazepin-2(1H)-one] was tested. Which EC50 [1] did it give?
Answer: The EC50 was 10.5 nM.

Question: And the EC50 [2]?
Answer: The EC50 was 15.9 nM.

Question: With `CCC(=O)Nc1cccc(CCC(C)NC2CCn3c(=O)[nH]c4cccc(c43)C2O)c1` (single isomer, unassigned) [Example 61, N-{3-[3-{[7-Hydroxy-2-oxo-1,2,4,5,6,7-hexahydroimidazo[4,5,1-jk][1]benzazepin-6-yl]amino}butyl]phenyl}propanamide] as the molecule, how does the EC50 [1] read?
Answer: Its EC50 is 12 nM.

Question: What about the EC50 [2] of the same molecule?
Answer: Its EC50 is 12.5 nM.

Question: `CNC(=O)c1cccc(CCC(C)NC2CCn3c(=O)[nH]c4cccc(c43)C2O)c1` (single isomer, unassigned) [Example 62, 3-[3-{[7-Hydroxy-2-oxo-1,2,4,5,6,7-hexahydroimidazo[4,5,1-jk][1]benzazepin-6-yl]amino}butyl]-N-methylbenzamide] was tested. Which EC50 [1] did it give?
Answer: The EC50 was 24.3 nM.

Question: And the EC50 [2]?
Answer: Its EC50 is 18.9 nM.

Question: Which EC50 [1] does the source give for `CC(=O)Nc1ccccc1CCC(C)NC1CCn2c(=O)[nH]c3cccc(c32)C1O` (single isomer, unassigned) [Example 63, N-{2-[3-{[7-Hydroxy-2-oxo-1,2,4,5,6,7-hexahydroimidazo[4,5,1-jk][1]benzazepin-6-yl]amino}butyl]phenyl}acetamide] here?
Answer: Its EC50 is 39.2 nM.

Question: And the EC50 [2]?
Answer: The EC50 was 40.8 nM.

Question: `CC(CCc1ccc(C(=O)NC2CC2)cc1)NC1CCn2c(=O)[nH]c3cccc(c32)C1O` (single isomer, unassigned) [Example 64, N-Cyclopropyl-4-[3-{[7-hydroxy-2-oxo-1,2,4,5,6,7-hexahydroimidazo[4,5,1-jk][1]benzazepin-6-yl]amino}butyl]benzamide] was tested. Which EC50 [1] did it give?
Answer: Its EC50 is 46.4 nM.

Question: What about the EC50 [2] of the same molecule?
Answer: The EC50 was 42.9 nM.

Question: `CC(CCc1cccc(NS(C)(=O)=O)c1)NC1CCn2c(=O)[nH]c3cccc(c32)C1O` (single isomer, unassigned) [Example 65] was tested. Which EC50 [1] did it give?
Answer: Its EC50 is 74.7 nM.

Question: What about the EC50 [2] of the same molecule?
Answer: Its EC50 is 31.5 nM.

Question: Which EC50 [1] does the source give for `CC(CCc1cccc(C(N)=O)c1)NC1CCn2c(=O)[nH]c3cccc(c32)C1O` (single isomer, unassigned) [Example 66, 3-[3-{[7-Hydroxy-2-oxo-1,2,4,5,6,7-hexahydroimidazo[4,5,1-jk][1]benzazepin-6-yl]amino}butyl]benzamide] here?
Answer: Its EC50 is 137 nM.

Question: And the EC50 [2]?
Answer: Its EC50 is 141 nM.

Question: With `CC(CCc1ccc(C(=O)O)cc1)NC1CCn2c(=O)[nH]c3cccc(c32)C1O` (single isomer, unassigned) [Example 68, 4-[3-{[7-Hydroxy-2-oxo-1,2,4,5,6,7-hexahydroimidazo[4,5,1-jk][1]benzazepin-6-yl]amino}butyl]benzoic acid] as the molecule, how does the EC50 [1] read?
Answer: The EC50 was 198 nM.

Question: What about the EC50 [2] of the same molecule?
Answer: The EC50 was 128 nM.

Question: `CC(CCc1ccc(NS(=O)(=O)C(F)(F)F)cc1)NC1CCn2c(=O)[nH]c3cccc(c32)C1O` (single isomer, unassigned) [Example 69, 1,1,1-Trifluoro-N-{4-[3-{[7-hydroxy-2-oxo-1,2,4,5,6,7-hexahydroimidazo[4,5,1-jk][1]benzazepin-6-yl]amino}butyl]phenyl}methanesulfonamide] was tested. Which EC50 [1] did it give?
Answer: The EC50 was 234 nM.

Question: What about the EC50 [2] of the same molecule?
Answer: The EC50 was 50.3 nM.
